The values below come from patent publication US7273716B2 (priority 2003, dated 2007).

In one data set the target is T1, GS-7340 ester hydrolase (Homo sapiens, UniProt P10619).
T1 construct: Fresh human PBMCs are obtained from patients undergoing leukophoresis; from tissue; host or cells: human peripheral blood mononuclear cells (PBMC extract, purified by Q15, Butyl Sepharose HIC and Con A chromatography)
T1 sequence (P10619 29-326 limits assumed): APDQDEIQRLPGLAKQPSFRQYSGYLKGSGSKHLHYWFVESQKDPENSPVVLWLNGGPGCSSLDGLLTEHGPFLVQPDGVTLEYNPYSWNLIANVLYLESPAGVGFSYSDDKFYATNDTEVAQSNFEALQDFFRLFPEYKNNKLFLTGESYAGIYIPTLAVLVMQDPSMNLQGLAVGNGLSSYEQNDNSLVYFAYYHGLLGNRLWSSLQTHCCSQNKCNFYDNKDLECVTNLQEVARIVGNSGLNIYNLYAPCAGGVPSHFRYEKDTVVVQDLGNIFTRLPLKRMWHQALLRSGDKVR
T1 sequence (P10619 327-480 limits assumed): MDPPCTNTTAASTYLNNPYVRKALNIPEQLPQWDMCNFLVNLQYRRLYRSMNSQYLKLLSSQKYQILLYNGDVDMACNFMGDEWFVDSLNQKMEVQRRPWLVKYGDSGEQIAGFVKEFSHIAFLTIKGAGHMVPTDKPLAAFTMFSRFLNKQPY
Kind of data set: biochemical.

In data set [1] the test system is Cat A+ and Cat A- human primary fibroblasts. The data set is described as follows: Metabolism of acyclic nucleotide phosphonate prodrugs in Cat A+/- fibroblasts. As to conditions: 10 μM 14C-labeled Compound K, 37° C., 15-240 min.

On GS-7340 ester hydrolase, `O=c1oc(Cl)c(Cl)c2ccccc12` [3,4-dichloroisocoumarin, 3,4 dichloroisocoumarin] came in with an IC50 of 500 nM.
As for `C=C(OC(C)C)[C@H](C)N[P@](=O)(CO[C@H](C)Cn1cnc2c(C)ncnc21)Oc1ccccc1` [Compound K], the “concentration of metabolites in Cat A+ control fibroblasts relative to Cat A- (galactosialidosis) fibroblasts” value in data set [1] is given as 6-9 times.
